In brackets after ≈: the same amount, converted by molar mass.
Columns and labels:
[1] = test system: Mycobacteroides abscessus; experiment: Antimycobacterial activity against Mycobacterium abscessus […] assessed as inhibition of bacterial growth measured after 5 days by visual analysis; format: functional; conditions: 120 h, time 5 day
[2] = test system: Mycobacterium tuberculosis; experiment: Antimycobacterial activity against Mycobacterium tuberculosis H37Rv mc2 6206 assessed as inhibition of bacterial growth measured after 7 days by visual analysis; format: functional; conditions: H37Rv mc2 6206, 168 h, time 7 day
[3] = test system: Mycolicibacterium fortuitum; experiment: Antimycobacterial activity against Mycobacterium fortuitum ATCC 6841 assessed as inhibition of bacterial growth by visual analysis; format: functional
[4] = Antimycobacterial activity against Mycobacterium avium subsp. avium 2585R assessed as inhibition of bacterial growth by visual analysis; format: functional
[5] = test system: Mycobacterium intracellulare; experiment: Antimycobacterial activity against Mycobacterium intracellulare 1956 assessed as inhibition of bacterial growth by visual analysis; format: functional
Mycobacteroides chelonae = experiment: Antimycobacterial activity against Mycobacteroides chelonae ATCC 35752 assessed as inhibition of bacterial growth by visual analysis; format: functional
[6] = test system: Mycobacterium intracellulare subsp. chimaera; experiment: Antimycobacterial activity against Mycobacterium intracellulare subsp. chimaera 1501948 assessed as inhibition of bacterial growth by visual analysis; format: functional
Mycobacterium kansasii = experiment: Antimycobacterial activity against Mycobacterium kansasii ATCC 1279 assessed as inhibition of bacterial growth by visual analysis; format: functional
[7] = Kinetic solubility of compound at pH 7.4 incubated for 6 hrs by LC-MS/MS analysis; format: physicochemical; conditions: buffer, read-out: Kinetic_solubility
[8] = Permeability of the compound by PAMPA method; format: ADME
[9] = Plasma protein binding in human at 10 ug/ml incubated for 4 hrs under shaking condition by LC/MS/MS analysis; format: ADME, cell-free; conditions: at 10 µg/mL, read-out: PPB (converted)
[10] = Metabolic stability in human liver S9 fraction assessed as parent compound remaining at 5 ug/ml after 90 mins in presence of NADPH by LC/MS analysis; format: ADME, subcellular; conditions: s9, 1.5 h, dose 5 µg/ml
[11] = Metabolic stability in mouse liver S9 fraction assessed as parent compound remaining at 5 ug/ml after 90 mins in presence of NADPH by LC/MS analysis; format: ADME, subcellular; conditions: s9, 1.5 h, dose 5 µg/ml
[12] = Cytotoxicity against human WI26VA4 cells assessed as inhibition of cell growth measured after 72 hrs by MTT assay; format: toxicity, cell-based
[13] = Selectivity index, ratio of IC50 for Cytotoxicity against human WI26VA4 cells to MIC for antimycobacterial activity against Mycobacterium abscessus […]; format: toxicity, cell-based; conditions: read-out: Selectivity Index
[14] = Selectivity index, ratio of IC50 for Cytotoxicity against human WI26VA4 cells to MIC for antimycobacterial activity against Mycobacterium tuberculosis H37Rv mc2 6206; format: toxicity, cell-based; conditions: read-out: Selectivity Index
[15] = test system: Mycobacteroides abscessus; experiment: Antimycobacterial activity against Mycobacterium Mycobacterium abscessus ATCC 19977 harbouring mmpL3 I306S mutant gene assessed as inhibition of bacterial growth by visual analysis; format: functional
[16] = test system: Mycobacteroides abscessus; experiment: Antimycobacterial activity against Mycobacterium abscessus ATCC 19977 harbouring mmpL3 A309P mutant gene assessed as inhibition of bacterial growth by visual analysis; format: functional
[17] = test system: Mycobacteroides abscessus; experiment: Antimycobacterial activity against Mycobacterium abscessus ATCC 19977 harbouring mmpL3 L551S mutant gene assessed as inhibition of bacterial growth by visual analysis; format: functional

SMILES	MIC [1]	MIC [2]	solubility kinetic at 6 h [7]	permeability [8]	fraction unbound at 4 h, 10 ug/ml [9]	t1/2 [10]	IC50 [12]	selectivity ratio [13]	selectivity ratio [14]	further results
O=C(CNc1ccccc1)NC1CCCCCCC1	8 µg/mL (≈ 30.7 µM)	8 µg/mL (≈ 30.7 µM)	–	–	–	–	–	–	–	–
COc1ccc(NCC(=O)NC2CCCCCCC2)cc1	> 64 µg/mL	64 µg/mL (≈ 220 µM)	–	–	–	–	–	–	–	–
C[C@@H]1[C@H]2C[C@@H](C[C@H]1NC(=O)CNc1cccc(Br)c1)C2(C)C	1 µg/mL (≈ 2.74 µM)	0.5 µg/mL (≈ 1.37 µM)	18.6 µg/mL (≈ 50.9 µM)	1.01 10^-6 cm/s	0.045	4.2 h	> 20 µg/mL	> 20	> 40	MIC [3]: 2 µg/mL (≈ 5.47 µM); MIC [4]: 16 µg/mL (≈ 43.8 µM); MIC [5]: 8 µg/mL (≈ 21.9 µM); MIC (Mycobacteroides chelonae): 8 µg/mL (≈ 21.9 µM); MIC [6]: 16 µg/mL (≈ 43.8 µM); MIC (Mycobacterium kansasii): 8 µg/mL (≈ 21.9 µM); t1/2 [11]: 5.8 h
C[C@@H]1[C@H]2C[C@@H](C[C@H]1NC(=O)CNc1ccc(Cl)cc1)C2(C)C	4 µg/mL (≈ 12.5 µM)	16 µg/mL (≈ 49.9 µM)	–	–	–	–	–	–	–	–
O=C(CNc1cccc(Br)c1)NC12CC3CC(CC(C3)C1)C2	1 µg/mL (≈ 2.75 µM)	32 µg/mL (≈ 88.1 µM)	22.2 µg/mL (≈ 61.1 µM)	1.02 10^-6 cm/s	0.068	0.5 h	> 20 µg/mL	> 20	> 20	–
O=C(CNc1ccc(Cl)cc1)NC1C2CC3CC(C2)CC1C3 (stereo unspecified)	> 64 µg/mL	64 µg/mL (≈ 201 µM)	–	–	–	–	–	–	–	–
O=C(CNc1ccc(Cl)cc1)NC12CC3CC(CC(C3)C1)C2	4 µg/mL (≈ 12.5 µM)	16 µg/mL (≈ 50.2 µM)	–	–	–	–	–	–	–	–
CC[C@H]1OC(=O)[C@H](C)[C@@H](O[C@H]2C[C@@](C)(OC)[C@@H](O)[C@H](C)O2)[C@H](C)[C@@H](O[C@@H]2O[C@H](C)C[C@H](N(C)C)[C@H]2O)[C@](C)(OC)C[C@@H](C)C(=O)[C@H](C)[C@@H](O)[C@]1(C)O [CLARITHROMYCIN]	–	–	–	–	–	–	–	–	–	MIC [15]: 4 µg/mL (≈ 5.35 µM); MIC [16]: 4 µg/mL (≈ 5.35 µM); MIC [17]: 8 µg/mL (≈ 10.7 µM)
C[C@@H]1[C@H]2C[C@@H](C[C@H]1NC(=O)CNc1ccccc1Cl)C2(C)C	1 µg/mL (≈ 3.12 µM)	0.25 µg/mL (≈ 0.779 µM)	14.3 µg/mL (≈ 44.6 µM)	0.38 10^-6 cm/s	0.045	5.1 h	> 20 µg/mL	> 20	> 80	MIC [3]: 2 µg/mL (≈ 6.23 µM); MIC [4]: 16 µg/mL (≈ 49.9 µM); MIC [5]: 16 µg/mL (≈ 49.9 µM); MIC (Mycobacteroides chelonae): 4 µg/mL (≈ 12.5 µM); MIC [6]: > 64 µg/mL; MIC (Mycobacterium kansasii): 16 µg/mL (≈ 49.9 µM); t1/2 [11]: 8.6 h
O=C(CNc1ccc(Cl)cc1)NC1CCCCCCC1	32 µg/mL (≈ 109 µM)	64 µg/mL (≈ 217 µM)	–	–	–	–	–	–	–	–
O=C(CNc1ccccc1)NC12CC3CC(CC(C3)C1)C2	16 µg/mL (≈ 56.3 µM)	32 µg/mL (≈ 113 µM)	–	–	–	–	–	–	–	–
Cc1ccc(NCC(=O)N[C@H]2CC[C@H](C)CC2)cc1	> 64 µg/mL	64 µg/mL (≈ 246 µM)	–	–	–	–	–	–	–	–
Cc1ccc(NCC(=O)NC2CCCCCCC2)cc1	> 64 µg/mL	32 µg/mL (≈ 117 µM)	–	–	–	–	–	–	–	–
COc1ccc(NCC(=O)N[C@@H]2C[C@@H]3C[C@H]([C@H]2C)C3(C)C)cc1	32 µg/mL (≈ 101 µM)	64 µg/mL (≈ 202 µM)	–	–	–	–	–	–	–	–
O=C(CNc1ccc(OC(F)(F)F)cc1)NC1C2CC3CC(C2)CC1C3 (stereo unspecified)	2 µg/mL (≈ 5.43 µM)	4 µg/mL (≈ 10.9 µM)	20.3 µg/mL (≈ 55.1 µM)	3.12 10^-6 cm/s	0.033	5.9 h	> 20 µg/mL	> 10	> 5	t1/2 [11]: 3.7 h
O=C(CNc1ccc(Br)cc1)NC12CC3CC(CC(C3)C1)C2	2 µg/mL (≈ 5.51 µM)	8 µg/mL (≈ 22 µM)	1.3 µg/mL (≈ 3.58 µM)	0.28 10^-6 cm/s	0.004	2.5 h	> 20 µg/mL	> 10	> 2.5	t1/2 [11]: 4 h
CNC(=C[N+](=O)[O-])NCCSCc1ccc(CN(C)C)o1 [RANITIDINE]	–	–	77.5 µg/mL (≈ 246 µM)	3.47 10^-6 cm/s	0.793	–	–	–	–	–
COc1ccc(NCC(=O)NC2C3CC4CC(C3)CC2C4)cc1 (stereo unspecified)	32 µg/mL (≈ 102 µM)	32 µg/mL (≈ 102 µM)	–	–	–	–	–	–	–	–
O=C(CNc1ccccc1OC(F)(F)F)NC12CC3CC(CC(C3)C1)C2	> 64 µg/mL	1 µg/mL (≈ 2.71 µM)	–	–	–	–	–	–	–	–
O=C(CNc1cccc(Cl)c1)NC12CC3CC(CC(C3)C1)C2	1 µg/mL (≈ 3.14 µM)	1 µg/mL (≈ 3.14 µM)	30.3 µg/mL (≈ 95 µM)	0.32 10^-6 cm/s	0.002	5.6 h	> 20 µg/mL	> 20	> 20	t1/2 [11]: 1.7 h

Reference: ChEMBL document CHEMBL5316284, “Structural Determinants of Indole-2-carboxamides: Identification of Lead Acetamides with Pan Antimycobacterial Activity” (J Med Chem, 2023)
